Test [1] addresses T1, lens aldose reductase (Bos taurus, UniProt P16116).
T1 construct: preparation of the enzyme from bovine lens; from tissue; host or cells: bovine lens
Nature of the test: in vitro aldose reductase inhibition test (modified Hayman and Kinoshita procedure, enzyme from bovine lens). The test is classed as biochemical. Here is the method:
In the present case the procedure of Hayman and Kinoshita is modified in that the final chromatography step is omitted in the preparation of the enzyme from bovine lens.
The following results were obtained when sulindac was evaluated in the above in vitro test: […]

Test [2] concerns galactosaemic rats. Put plainly: dulcitol accumulation in lenses and sciatic nerves of galactosaemic rats. The test is classed as in vivo, rat. The settings on record: for Dulcitol Accumulation Sicatic Nerves Percent Decrease / Dulcitol Accumulation Lenses Percent Decrease / Dulcitol Accumulation Sicatic Nerves / Dulcitol Accumulation Lenses: four days. An excerpt: The aldose reductase inhibiting property of sulindac and its utilization in diminishing and alleviating diabetic complications also are demonstrable in experiments using galactosaemic rats, see D. Dvornik et al., Science, 182, 1146 (1973). Such experiments are exemplified hereinbelow after the listing of the following general comments pertaining to these experiments:
(a) Four or more groups of six male rats, 50-70 g, Sprague-Dawley strain, were used. The first group, the control group, was fed a mixture of laboratory chow (rodent laboratory chow, Purina) and glucose at 20% (w/w %) concentration. The untreated galactosaemic group was fed a similar diet in which galactose is substituted for glucose. The other groups were fed diets containing various amounts of sulindac in the galactose containing diet. The concentration of galactose in the diet of the treated groups was the same as that for the untreated galactosaemic group.
(b) After four days, the animals were killed by decapitation. The eyeballs were removed and punctured with a razor blade; the freed lenses were rolled gently on filter paper and weighed. The sciatic nerves were dissected as completely as possible and weighed. Both tissues were frozen and kept up to two weeks before being analyzed for dulcitol.
(c) The tissues were homoginized in 5% (w/v) trichloroacetic acid and the polyol determination on the extracts was performed by a modification of the procedure of M. Kraml and L. Cosyns, Clin. Biochem., 2, 373 (1969). Only two minor reagent changes were made: (a) The rinsing mixture was an aqueous 5% (w/v) trichloroacetic acid solution and (b) the stock solution was prepared by dissolving 25 mg of dulcitol in 100 ml of an aqueous trichloroacetic acid solution. [N.B.: For each experiment the average value found in the tissue from rats fed the glucose diet was substracted from the individual values found in the corresponding rat tissue to obtain the amount of polyol accumulated].

Where [3] appears, read: Experiment 2, 62 mg/kg/day in diet, p < 0.01.

The source of these data is patent US4307114A, “Aldose reductase inhibition by (Z)-5-fluoro-2-methyl-1-[[4-(methylsulfinyl)phenyl]methylene]-1H-indene- 3-acetic acid” (Ayerst, McKenna & Harrison, Inc., priority 1980, dated 1981).

As to `CC1=C(CC(=O)O)c2cc(F)ccc2/C1=C\c1ccc([S+](C)[O-])cc1` (stereo not drawn) [Sulindac, (Z)-5-Fluoro-2-methyl-1-[[4-(methylsulfinyl)phenyl]methylene]-1H-indene-3-acetic acid], in test [1], the “inhibition of lens aldose reductase (in words)” value is “potent inhibitor of lens aldose reductase”. The “Percent Inhibition” value in test [1] (concentration 10^-5 Mole/l) amounted to 88%; in test [1] (concentration 10^-6 Mole/l), 60%; in test [1] (concentration 10^-7 Mole/l), 18%. Moreover, the “Dulcitol Accumulation Sicatic Nerves Percent Decrease” value in test [2] (Experiment 1, 31 mg/kg/day in diet, p < 0.001) stood at 39%; in test [2] (Experiment 2, 25 mg/kg/day in diet, t test N.S.), 36%; in test [2] (Experiment 2, 47 mg/kg/day in diet, p < 0.05) it was 34%; in test [2] (setting [3]), 49%. In addition, the “Dulcitol Accumulation Lenses Percent Decrease” value in test [2] (Experiment 1, 31 mg/kg/day in diet, t test N.S.) came to 8%; in test [2] (Experiment 2, 25 mg/kg/day in diet, p < 0.01), 14%; in test [2] (Experiment 2, 47 mg/kg/day in diet, p < 0.01), 12%; in test [2] (setting [3]) it was 17%. The “Dulcitol Accumulation Sicatic Nerves” value worked out at 1.02 ± 0.09 µg/mg in test [2] (Experiment 1, 31 mg/kg/day in galactose diet, untreated 1.67 ± 0.08); 0.83 ± 0.19 µg/mg in test [2] (Experiment 2, 25 mg/kg/day in galactose diet, untreated 1.30 ± 0.14); 0.85 ± 0.10 µg/mg in test [2] (Experiment 2, 47 mg/kg/day in galactose diet, untreated 1.30 ± 0.14); 0.67 ± 0.04 µg/mg in test [2] (Experiment 2, 62 mg/kg/day in galactose diet, untreated 1.30 ± 0.14). Further, the “Dulcitol Accumulation Lenses” value in test [2] (Experiment 1, 31 mg/kg/day in galactose diet, untreated 12.01 ± 0.38) turned out to be 11.10 ± 0.28 µg/mg; in test [2] (Experiment 2, 25 mg/kg/day in galactose diet, untreated 12.10 ± 0.30) it was 10.46 ± 0.32 µg/mg; in test [2] (Experiment 2, 47 mg/kg/day in galactose diet, untreated 12.10 ± 0.30), 10.71 ± 0.22 µg/mg; in test [2] (Experiment 2, 62 mg/kg/day in galactose diet, untreated 12.10 ± 0.30), 10.06 ± 0.43 µg/mg. Further, the “accumulation of dulcitol in the lenses and sciatic nerves of rats fed galactose (in words)” value in test [2] (as compared to an untreated animal) was “diminishes and alleviates the accumulation of dulcitol”.
